In patent publication US10227323B2, “Glucosylceramide synthase inhibitors for the treatment of diseases” (BIOMARIN PHARMACEUTICAL INC., priority 2013, dated 2019):

The molecules below were run against T1, GCS (Canis lupus familiaris, UniProt A0A8I3MXG6) (assay: Assay 1: GCS Enzymatic Assay (MDCK cell lysate, C6-NBD-Ceramide, LC/MS)). Settings: Table 2; data without asterisk; read-out: IC50 (nM) generated from Assay 1.
T1 sequence (A0A8I3MXG6 1-394): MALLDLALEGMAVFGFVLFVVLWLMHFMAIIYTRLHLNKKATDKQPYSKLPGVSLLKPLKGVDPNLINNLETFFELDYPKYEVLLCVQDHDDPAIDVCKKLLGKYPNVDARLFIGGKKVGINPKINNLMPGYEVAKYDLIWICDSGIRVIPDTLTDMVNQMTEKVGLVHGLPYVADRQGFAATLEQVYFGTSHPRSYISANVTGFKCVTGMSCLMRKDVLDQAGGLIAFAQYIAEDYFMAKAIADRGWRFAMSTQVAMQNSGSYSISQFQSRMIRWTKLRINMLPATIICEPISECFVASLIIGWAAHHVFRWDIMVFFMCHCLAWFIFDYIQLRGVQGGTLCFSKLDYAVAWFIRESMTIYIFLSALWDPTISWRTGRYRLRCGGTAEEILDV
Assay type: biochemical, canine
Outline: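 LC/MS/MS measurement of glucosylceramide and NBD-ceramide after a 1 h, 37 °C reaction with 100 μM UDP-glucose and 10 μM C6-NBD-ceramide gave IC50s or percent inhibition.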

SMILES	IC50
CC(C)n1cc2ccc(C(=O)C(=O)N[C@H](CN3CCCC3)[C@H](O)c3ccc(OC4CC4)c(Cl)c3)cc2n1 [Example 316, N-((1R,2R)-1-(3-chloro-4-cyclopropoxyphenyl)-1-hydroxy-3-(pyrrolidin-1-yl)propan-2-yl)-2-(2-isopropyl-2H-indazol-6-yl)-2-oxoacetamide]	< 50 nM
Cc1nn(C(C)C)c2ccc(C(=O)C(=O)N[C@H](CN3CCCC3)[C@H](O)c3ccc(OC4CC4)c(Cl)c3)cc12 [Example 317, N-((1R,2R)-1-(3-chloro-4-cyclopropoxyphenyl)-1-hydroxy-3-(pyrrolidin-1-yl)propan-2-yl)-2-(1-isopropyl-3-methyl-1H-indazol-5-yl)-2-oxoacetamide]	< 50 nM
O=C(N[C@H](CN1CCCC1)[C@H](O)c1ccc2c(c1)OC=CO2)C(=O)c1ccc(-c2ccc(F)cc2)cc1 [Example 319, N-((1R,2R)-1-(benzo[b][1,4]dioxin-6-yl)-1-hydroxy-3-(pyrrolidin-1-yl)propan-2-yl)-2-(4′-fluoro-[1,1′-biphenyl]-4-yl)-2-oxoacetamide]	< 50 nM
O=C(N[C@H](CN1CCCC1)[C@H](O)c1ccc(SC2CC2)c(Cl)c1)C(=O)c1ccc(-c2ccc(F)cc2)cc1 [Example 320, N-((1R,2R)-1-(3-chloro-4-(cyclopropylthio)phenyl)-1-hydroxy-3-(pyrrolidin-1-yl)propan-2-yl)-2-(4′-fluoro-[1,1′-biphenyl]-4-yl)-2-oxoacetamide]	< 50 nM
CC(C)n1ncc2cc(C(=O)C(=O)N[C@H](CN3CCCC3)[C@H](O)c3ccc(OC4CC4)c(Cl)c3)ccc21 [Example 321, N-((1R,2R)-1-(3-chloro-4-cyclopropoxyphenyl)-1-hydroxy-3-(pyrrolidin-1-yl)propan-2-yl)-2-(1-isopropyl-1H-indazol-5-yl)-2-oxoacetamide]	< 50 nM
CC(C)n1ccc2cc(C(=O)C(=O)N[C@H](CN3CCCC3)[C@H](O)c3ccc(OC4CC4)c(Cl)c3)ccc21 [Example 324, N-((1R,2R)-1-(3-chloro-4-cyclopropoxyphenyl)-1-hydroxy-3-(pyrrolidin-1-yl)propan-2-yl)-2-(1-isopropyl-1H-indo1-5-yl)-2-oxoacetamide]	< 50 nM
O=C(N[C@@H](Cc1ccc(OC2CC2)c(Cl)c1)CN1CCCC1)C(=O)c1ccc(-c2ccc(F)cc2)cc1 [Example 326, (S)-N-(1-(3-chloro-4-cyclopropoxyphenyl)-3-(pyrrolidin-1-yl)propan-2-yl)-2-(4′-fluoro-[1,1′-biphenyl]-4-yl)-2-oxoacetamide]	50 to 5000 nM
O=C(N[C@H](CN1CCC1)[C@H](O)c1ccc(OC2CC2)c(Cl)c1)C(=O)c1ccc(N2CCCC2)cc1 [Example 327, N-((1R,2R)-3-(azetidin-1-yl)-1-(3-chloro-4-cyclopropoxyphenyl)-1-hydroxypropan-2-yl)-2-oxo-2-(4-(pyrrolidin-1-yl)phenyl)acetamide]	< 50 nM
O=C(N[C@H](CN1CCCC1)[C@H](O)c1ccc(OC2CC2)c(Cl)c1)C(F)(F)CCc1ccc2cc(Cl)ccc2c1 [Example 328, N-((1R,2R)-1-(3-chloro-4-cyclopropoxyphenyl)-1-hydroxy-3-(pyrrolidin-1-yl)propan-2-yl)-4-(6-chloronaphthalen-2-yl)-2,2-difluorobutanamide]	< 50 nM
C=COc1ccc([C@@H](O)[C@@H](CN2CCCC2)NC(=O)C(=O)c2ccc(-c3ccc(F)cc3)cc2)cc1Cl [Example 329, N-((1R,2R)-1-(3-chloro-4-(vinyloxy)phenyl)-1-hydroxy-3-(pyrrolidin-1-yl)propan-2-yl)-2-(4′-fluoro-[1,1′-biphenyl]-4-yl)-2-oxoacetamide]	< 50 nM
CC(C)n1ccc2ccc(C(=O)C(=O)N[C@H](CN3CCCC3)[C@H](O)c3ccc(OC4CC4)c(Cl)c3)cc21 [Example 332, N-((1R,2R)-1-(3-chloro-4-cyclopropoxyphenyl)-1-hydroxy-3-(pyrrolidin-1-yl)propan-2-yl)-2-(1-isopropyl-1H-indo1-6-yl)-2-oxoacetamide]	< 50 nM
O=C(N[C@H](CN1CCCC1)[C@H](O)c1ccc(OC2CC2)cc1)C(=O)c1ccc(-c2ccc(F)cc2)cc1 [Example 333, N-((1R,2R)-1-(4-cyclopropoxyphenyl)-1-hydroxy-3-(pyrrolidin-1-yl)propan-2-yl)-2-(4′-fluoro-[1,1′-biphenyl]-4-yl)-2-oxoacetamide]	< 50 nM
O=C(N[C@H](CN1CCC1)[C@H](O)c1ccc(OC2CC2)c(Cl)c1)C(=O)c1cc2ccc(Cl)cc2s1 [Example 338, N-((1R,2R)-3-(azetidin-1-yl)-1-(3-chloro-4-cyclopropoxyphenyl)-1-hydroxypropan-2-yl)-2-(6-chlorobenzo[b]thiophen-2-yl)-2-oxoacetamide]	< 50 nM
CC(C)c1ccc(-c2ccc(C(=O)C(=O)N[C@H](CN3CCCC3)[C@H](O)c3ccc(OC4CC4)c(Cl)c3)cc2)cc1 [Example 339, N-((1R,2R)-1-(3-chloro-4-cyclopropoxyphenyl)-1-hydroxy-3-(pyrrolidin-1-yl)propan-2-yl)-2-(4′-isopropyl-[1,1′-biphenyl]-4-yl)-2-oxoacetamide]	< 50 nM

Second part, the molecule after the results:

IC50	SMILES
< 50 nM	Cc1cc(F)ccc1-c1ccc(C(=O)C(=O)N[C@H](CN2CCCC2)[C@H](O)c2cc(F)c3c(c2)OCCO3)cc1 [Example 315, 2-(4′-fluoro-2′-methyl-[1,1′-biphenyl]-4-yl)-N-((1R,2R)-1-(8-fluoro-2,3-dihydrobenzo[b][1,4]dioxin-6-yl)-1-hydroxy-3-(pyrrolidin-1-yl)propan-2-yl)-2-oxoacetamide]
< 50 nM	Cc1nn(C)c2ccc(-c3ccc(C(=O)C(=O)N[C@H](CN4CCCC4)[C@H](O)c4ccc(OC5CC5)c(Cl)c4)cc3)cc12 [Example 318, N-((1R,2R)-1-(3-chloro-4-cyclopropoxyphenyl)-1-hydroxy-3-(pyrrolidin-1-yl)propan-2-yl)-2-(4-(1,3-dimethyl-1H-indazol-5-yl)phenyl)-2-oxoacetamide]
< 50 nM	Cc1nn(C)c2ccc(-c3ccc(C(=O)C(=O)N[C@H](CN4CCCC4)[C@H](O)c4cc(F)c5c(c4)OCCO5)cc3)cc12 [Example 322, 2-(4-(1,3-dimethyl-1H-indazol-5-yl)phenyl)-N-((1R,2R)-1-(8-fluoro-2,3-dihydrobenzo[b][1,4]dioxin-6-yl)-1-hydroxy-3-(pyrrolidin-1-yl)propan-2-yl)-2-oxoacetamide]
< 50 nM	CC(C)n1ccc2cc(C(=O)C(=O)N[C@H](CN3CCCC3)[C@H](O)c3cc(F)c4c(c3)OCCO4)ccc21 [Example 323, N-((1R,2R)-1-(8-fluoro-2,3-dihydrobenzo[b][1,4]dioxin-6-yl)-1-hydroxy-3-(pyrrolidin-1-yl)propan-2-yl)-2-(1-isopropyl-1H-indo1-5-yl)-2-oxoacetamide]
< 50 nM	O=C(N[C@H](CN1CCCC1)[C@H](O)c1cc(F)c2c(c1)OCCO2)C(=O)c1ccc(N2CCOCC2)cc1 [Example 325, N-((1R,2R)-1-(8-fluoro-2,3-dihydrobenzo[b][1,4]dioxin-6-yl)-1-hydroxy-3-(pyrrolidin-1-yl)propan-2-yl)-2-(4-morpholinophenyl)-2-oxoacetamide]
< 50 nM	CC(C)n1cc(-c2ccc(C(=O)C(=O)N[C@H](CN3CCCC3)[C@H](O)c3cc(F)c4c(c3)OCCO4)cc2)cn1 [Example 330, N-((1R,2R)-1-(8-fluoro-2,3-dihydrobenzo[b][1,4]dioxin-6-yl)-1-hydroxy-3-(pyrrolidin-1-yl)propan-2-yl)-2-(4-(1-isopropyl-1H-pyrazol-4-yl)phenyl)-2-oxoacetamide]
< 50 nM	CC(C)n1ccc2ccc(C(=O)C(=O)N[C@H](CN3CCCC3)[C@H](O)c3cc(F)c4c(c3)OCCO4)cc21 [Example 331, N-((1R,2R)-1-(8-fluoro-2,3-dihydrobenzo[b][1,4]dioxin-6-yl)-1-hydroxy-3-(pyrrolidin-1-yl)propan-2-yl)-2-(1-isopropyl-1H-indo1-6-yl)-2-oxoacetamide]
< 50 nM	Cc1nn(C(C)C)c2cc(-c3ccc(C(=O)C(=O)N[C@H](CN4CCCC4)[C@H](O)c4ccc(OC5CC5)c(Cl)c4)cc3)ccc12 [Example 334, N-((1R,2R)-1-(3-chloro-4-cyclopropoxyphenyl)-1-hydroxy-3-(pyrrolidin-1-yl)propan-2-yl)-2-(4-(1-isopropyl-3-methyl-1H-indazol-6-yl)phenyl)-2-oxoacetamide]
< 50 nM	Cc1c2ccc(-c3ccc(C(=O)C(=O)N[C@H](CN4CCCC4)[C@H](O)c4cc(F)c5c(c4)OCCO5)cc3)cc2nn1C(C)C [Example 335, N-((1R,2R)-1-(8-fluoro-2,3-dihydrobenzo[b][1,4]dioxin-6-yl)-1-hydroxy-3-(pyrrolidin-1-yl)propan-2-yl)-2-(4-(2-isopropyl-3-methyl-2H-indazol-6-yl)phenyl)-2-oxoacetamide]
< 50 nM	Cc1c2ccc(-c3ccc(C(=O)C(=O)N[C@H](CN4CCCC4)[C@H](O)c4ccc(OC5CC5)c(Cl)c4)cc3)cc2nn1C(C)C [Example 336, N-((1R,2R)-1-(3-chloro-4-cyclopropoxyphenyl)-1-hydroxy-3-(pyrrolidin-1-yl)propan-2-yl)-2-(4-(2-isopropyl-3-methyl-2H-indazol-6-yl)phenyl)-2-oxoacetamide]
< 50 nM	Cc1nn(C(C)C)c2cc(-c3ccc(C(=O)C(=O)N[C@H](CN4CCCC4)[C@H](O)c4cc(F)c5c(c4)OCCO5)cc3)ccc12 [Example 337, N-((1R,2R)-1-(8-fluoro-2,3-dihydrobenzo[b][1,4]dioxin-6-yl)-1-hydroxy-3-(pyrrolidin-1-yl)propan-2-yl)-2-(4-(1-isopropyl-3-methyl-1H-indazol-6-yl)phenyl)-2-oxoacetamide]
